Experimental findings from paper PMC6886737 (Bioorganic & medicinal chemistry letters, 2019) are described below.

In general, inhibition refers to the relative decrease from the control value, in per cent.

The target of test [1] is T1, CDK14 (Homo sapiens, UniProt O94921). As to the kind of experiment: Biotin JNK-IN-7 pull-down assay, cellular CDK14 engagement. The settings on record: for concentration at which CDK14 pulldown is blocked / effects shown / activity in the cellular pull-down assay: cells treated 4 h.
Target sequence in this assay (O94921 whole entry): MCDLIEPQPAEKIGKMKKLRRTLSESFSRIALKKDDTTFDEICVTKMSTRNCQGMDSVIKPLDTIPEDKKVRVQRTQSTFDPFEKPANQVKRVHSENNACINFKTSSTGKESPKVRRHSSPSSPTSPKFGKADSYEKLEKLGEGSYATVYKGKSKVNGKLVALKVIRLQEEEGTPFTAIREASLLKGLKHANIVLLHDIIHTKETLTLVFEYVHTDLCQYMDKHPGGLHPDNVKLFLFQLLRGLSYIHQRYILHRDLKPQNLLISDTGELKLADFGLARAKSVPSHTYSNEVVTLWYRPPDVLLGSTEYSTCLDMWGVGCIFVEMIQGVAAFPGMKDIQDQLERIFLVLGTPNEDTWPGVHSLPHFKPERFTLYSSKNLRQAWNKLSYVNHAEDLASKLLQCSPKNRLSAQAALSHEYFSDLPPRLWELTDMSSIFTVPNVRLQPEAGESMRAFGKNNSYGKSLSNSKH
The target of test [2] is T1, CDK14. As to the kind of experiment: LanthaScreen CDK14 binding assay. A general note: In TR-FRET formats the signal depends on donor and acceptor labels being close together.
Target sequence in this assay (O94921 whole entry): as above
Target sequence in this assay (Q8ND76 whole entry partner): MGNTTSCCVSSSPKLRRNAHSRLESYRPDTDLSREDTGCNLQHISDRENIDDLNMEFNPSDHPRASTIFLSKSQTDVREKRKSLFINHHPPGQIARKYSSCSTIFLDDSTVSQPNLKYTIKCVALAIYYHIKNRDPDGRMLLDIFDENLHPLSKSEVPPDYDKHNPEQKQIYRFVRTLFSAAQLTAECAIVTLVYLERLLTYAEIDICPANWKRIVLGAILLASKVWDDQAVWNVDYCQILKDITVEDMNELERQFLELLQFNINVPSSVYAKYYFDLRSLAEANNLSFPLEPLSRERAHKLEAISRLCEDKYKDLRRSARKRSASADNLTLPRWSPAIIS
For a further test, the target named is CDK16 (Homo sapiens, UniProt Q00536). Briefly: KiNativ profiling. In kind it is cell-based. To be noted: read-out: CDK16 percent inhibition relative to DMSO.
The target of a further test is CDK2 (Homo sapiens, UniProt P24941). Briefly: KiNativ profiling. To be noted: read-out: CDK2 percent inhibition relative to DMSO. In kind it is cell-based.
For a further test, the target named is CDK10 (Homo sapiens, UniProt Q15131). Briefly: KiNativ profiling. In kind it is cell-based. The settings on record: read-out: CDK10 percent inhibition relative to DMSO.
For the next test, the system named is HCT116 cell line. As to the kind of experiment: CellTiter-Glo proliferation assay. In kind it is cell-based. A general note: ATP-based viability assays read luminescence as a measure of living cells.

Chain of CDK10 (Q15131 whole entry): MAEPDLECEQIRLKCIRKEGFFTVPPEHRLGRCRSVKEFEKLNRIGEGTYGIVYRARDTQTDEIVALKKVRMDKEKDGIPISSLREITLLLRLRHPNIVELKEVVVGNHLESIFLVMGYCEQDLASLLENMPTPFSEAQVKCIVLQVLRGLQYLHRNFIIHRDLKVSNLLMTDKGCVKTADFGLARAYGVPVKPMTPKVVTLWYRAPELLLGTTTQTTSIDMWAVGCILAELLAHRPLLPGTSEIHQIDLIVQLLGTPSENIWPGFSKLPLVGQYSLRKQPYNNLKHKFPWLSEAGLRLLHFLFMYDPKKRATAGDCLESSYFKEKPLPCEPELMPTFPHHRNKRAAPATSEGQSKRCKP
Chain of CDK16 (Q00536 whole entry): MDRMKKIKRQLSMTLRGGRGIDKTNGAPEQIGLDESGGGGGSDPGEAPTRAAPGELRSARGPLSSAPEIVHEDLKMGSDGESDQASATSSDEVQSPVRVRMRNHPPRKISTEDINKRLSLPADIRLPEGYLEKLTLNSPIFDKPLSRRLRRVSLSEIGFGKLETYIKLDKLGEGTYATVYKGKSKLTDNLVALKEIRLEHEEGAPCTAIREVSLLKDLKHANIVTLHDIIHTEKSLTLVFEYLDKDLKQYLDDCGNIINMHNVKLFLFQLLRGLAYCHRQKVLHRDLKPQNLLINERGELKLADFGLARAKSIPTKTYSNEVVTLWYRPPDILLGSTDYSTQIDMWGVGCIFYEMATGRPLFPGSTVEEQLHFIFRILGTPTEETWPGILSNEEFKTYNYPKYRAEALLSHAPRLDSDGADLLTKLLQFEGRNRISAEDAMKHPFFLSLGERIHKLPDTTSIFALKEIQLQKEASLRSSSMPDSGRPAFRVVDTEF

On to `CN(C)C/C=C/C(=O)Nc1cccc(C(=O)Nc2ccc(NC(=O)c3n[nH]cc3NC(=O)c3c(Cl)cccc3Cl)cc2)c1.O=C(O)C(F)(F)F` [Compound 46], for which the “concentration at which CDK14 pulldown is blocked / effects shown” value at CDK14 [1] is 500 to 1000 nM.
Take `Cc1cc(NC(=O)c2cccc(NC(=O)/C=C/CN(C)C)c2)ccc1NC(=O)c1n[nH]cc1NC(=O)c1c(Cl)cccc1Cl.O=C(O)C(F)(F)F` [Compound 48]: at CDK14 [2], the “CDK14 binding potency” value is “not tolerated by CDK14”.
Same read-out and setting: to `C=CC(=O)Nc1cccc(C(=O)Nc2ccc(NC(=O)c3n[nH]cc3NC(=O)c3c(Cl)cccc3Cl)c(C)c2)c1.O=C(O)C(F)(F)F` [Compound 47] belongs “not tolerated by CDK14”.
As for `O=C(NC1CCNCC1)c1n[nH]cc1NC(=O)c1c(Cl)cccc1Cl` [AT7519, N-(4-piperidinyl)-4-(2,6-dichlorobenzoylamino)-1H-pyrazole-3-carboxamide, reference compound], at CDK14 [1] (1 μM, screen of library of reported CDK inhibitors), the “CDK14 cellular engagement screen result” value is given as “efficient CDK14 inhibitor”.
As to `CN(C)C/C=C/C(=O)Nc1cccc(S(=O)(=O)N2CCC(NC(=O)c3n[nH]cc3NC(=O)c3c(Cl)cc(Cl)cc3Cl)CC2)c1.O=C(O)C(F)(F)F` [Compound 100], the inhibition at 1 µM at CDK16, on CDK2 and on CDK10 was > 75% throughout. In addition, the “concentration for complete inhibition of CDK14 pull-down” value at CDK14 [1] is on record as “below 1 μM”.
Regarding `CN(C)CC/C=C/C(=O)Nc1ccc(N2CCC(NC(=O)c3n[nH]cc3NC(=O)c3c(Cl)cccc3Cl)CC2)cc1.O=C(O)C(F)(F)F` [Compound 54], the “HCT116 toxicity” value with HCT116 cell line is listed as “low HCT116 toxicity”.
`CN(C)C/C=C/C(=O)Nc1cccc(S(=O)(=O)N2CCC(NC(=O)c3n[nH]cc3NC(=O)c3ccccc3)CC2)c1.O=C(O)C(F)(F)F` [Compound 107]: the “CDK14 binding potency” value at CDK14 [2] was “potent CDK14 inhibition”. Moreover, the “HCT116 toxicity” value in the test on HCT116 cell line was “reduced HCT116 toxicity”.
For the compound `CN(C)CC/C=C/C(=O)Nc1cccc(N2CCC(NC(=O)c3n[nH]cc3NC(=O)c3c(Cl)cccc3Cl)CC2)c1.O=C(O)C(F)(F)F` [Compound 56], the “HCT116 toxicity” value in the test on HCT116 cell line is “low HCT116 toxicity”. Moreover, on CDK14 [1], the “activity in the cellular pull-down assay” value is given as “not active, or weakly active”.
Consider `C=CC(=O)Nc1cccc(C(=O)N2CCC(NC(=O)c3n[nH]cc3NC(=O)c3c(Cl)cccc3Cl)CC2)c1.O=C(O)C(F)(F)F` [Compound 27], for which the “concentration at which CDK14 pulldown is blocked / effects shown” value at CDK14 [1] fell in the range of 500 to 1000 nM.
On to `CN(C)CC/C=C/C(=O)Nc1ccc(S(=O)(=O)N2CC[C@@H](NC(=O)c3n[nH]cc3NC(=O)c3c(Cl)cccc3Cl)C2)cc1.O=C(O)C(F)(F)F` [Compound 68], for which, on CDK14 [1], the “activity in the cellular pull-down assay” value was “not active, or weakly active”.
